In US20070135366A1, “Method for assessing cancerous state” (SUMITOMO CHEMICAL COMPANY, LIMITED., priority 2003, published 2007):

Assays:
[1] = system: Fibrillin2 gene expression in pancreatic cancer cell line HPAC; experiment: Effect of methylation inhibitor on expression of Fibrillin2 gene (Real Time PCR of mRNA-derived DNA) in HPAC; type: cell-based, human; conditions: added on first and third day after seeding, cells recovered on fourth day
Method: (§1) seven kinds of human-derived pancreatic cancer cell lines (BXPc3, HPAF-II, Capan-2, MiaPaCa-2, Hs766T, PANC-1 and HPAC) and immortal (normal) pancreatic ductal epithelial cells lines (HPDE-4/E6E7 and HPDE6-E6E7c7) were cultured to 70% confluent in an exclusively used medium, and thereafter, each cell was corrected. 1 ml of an ISOGEN solution (Nippon Gene) was mixed with collected each cell (wet weight about 100 mg), this was homogenized, and 0.2 ml of chloroform was added thereto to suspend them. After suspending, the mixture was centrifuged (4° C., 15000×g, 15 minutes) to recover the supernatant. […]
(§2) A reaction solution of PCR was used which was obtained by mixing 50 ng of a cDNA as a template, each 1 μl of two kinds of 10 pmol/μl aforementioned primer solution, 4 μl of 2.5 mM dNTP, 4 μl of 5 mM dUTP, 5 μl of 10×SYBR Green PCR Buffer, 6 μl of 25 mM MgCl2 and 0.3 μl of a 5U/μl thermos table DNA polymerase (AmpliTaq Gold), 0.5 μl of AmpEraseUNG and adding sterilized ultrapure water thereto to an amount of solution of 50 μl. […] When a DNA derived from mRNA of Fibrillin2 gene and GAPDH gene was amplified, after the reaction solution was retained at 95° C. for 10 minutes, Real Time PCR was performed at the conditions under which each cycle was 30 seconds at 95° C., 30 seconds at 59° C. and 30 seconds at 72° C. to quantitate Fibrillin2 gene and GAPDH gene.

[2] = system: Fibrillin2 gene expression in pancreatic cancer cell line PANC-1; experiment: Effect of methylation inhibitor on expression of Fibrillin2 gene (Real Time PCR of mRNA-derived DNA) in PANC-1; type: cell-based, human; conditions: added on first and third day after seeding, cells recovered on fourth day
Method: as §1, §2

Measured: DNA derived from a mRNA of Fibrillin2 gene (expression of Fibrillin2 gene)

Nc1ncn([C@H]2C[C@H](O)[C@@H](CO)O2)c(=O)n1 [5Aza-dC, 5-aza-2′-deoxytidine]
detected: [1]; HPAC cultured in the presence of 0.5 μM 5Aza-dC | [1]; HPAC cultured in the presence of 1 μM 5Aza-dC | [2]; PANC-1 cultured in the presence of 0.5 μM 5Aza-dC | [2]; PANC-1 cultured in the presence of 1 μM 5Aza-dC
